In patent US11623924B2, “Modulators of alpha-1 antitrypsin” (Vertex Pharmaceuticals Incorporated, priority 2018, dated 2023):

Target: T1, NL20 human bronchial epithelial cells expressing human Z-AAT (Homo sapiens, UniProt P01009, E366K)
T1 construct: expressed in transfected cells; host or cells: NL20 human bronchial epithelial cells (NL20-SI line, doxycycline added)
Test: AAT Function Assay (MSD Assay NL20-SI Cell Line)
Type: cell-based
Conditions: functionally active AAT (AAT-hNE complex) in supernatant of NL20 cells expressing human Z-AAT; read-out: NL20 Func. (EC50)
In short: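 NL20 cells expressing Z-AAT, seeded 16,000 cells/well, received compound with doxycycline (0.1 μM final) and were incubated overnight at 37° C. Supernatants, diluted 45-fold in total, reacted with excess human neutrophil elastase; AAT-elastase complex captured on anti-AAT plates, detected with Sulfo-tagged anti-elastase by MSD electrochemiluminescence, and quantified against M-AAT standards (0.156-320 ng/mL).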

T1 sequence (P01009 25-418 E366K): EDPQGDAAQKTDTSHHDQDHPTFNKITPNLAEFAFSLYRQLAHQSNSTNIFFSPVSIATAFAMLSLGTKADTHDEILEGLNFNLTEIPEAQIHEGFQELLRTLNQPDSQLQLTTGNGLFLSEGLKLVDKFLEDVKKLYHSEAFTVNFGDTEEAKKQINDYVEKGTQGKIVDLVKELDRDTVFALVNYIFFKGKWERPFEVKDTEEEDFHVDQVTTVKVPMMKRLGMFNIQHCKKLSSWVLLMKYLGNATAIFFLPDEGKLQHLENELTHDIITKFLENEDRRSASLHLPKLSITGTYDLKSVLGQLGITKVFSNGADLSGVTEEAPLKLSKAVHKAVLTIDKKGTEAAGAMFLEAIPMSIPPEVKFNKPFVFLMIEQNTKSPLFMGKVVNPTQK

SMILES | EC50 [µM]
CC(C)c1c(CCC(=O)O)c2cc3[nH]ncc3cc2n1-c1ccc(F)cc1 [Compound 32, 3-[5-(4-fluorophenyl)-6-isopropyl-1H-pyrrolo[2,3-f]indazol-7-yl]propanoic Acid] | 1.16 to 3
NC(=O)CCc1c(C2CCOCC2)n(-c2ccc(F)cc2)c2cc3cn[nH]c3cc12 [Compound 166, 3-[5-(4-fluorophenyl)-6-tetrahydropyran-4-yl-1H-pyrrolo[2,3-f]indazol-7-yl]propanamide] | > 3
Cc1n[nH]c2cc3c(C4CC5(CC(C(=O)O)C5)C4)c(C4CCOCC4)n(-c4ccc(F)c(F)c4)c3cc12 (racemic) [Compound 129, 6-[5-(3,4-difluorophenyl)-3-methyl-6-tetrahydropyran-4-yl-1H-pyrrolo[2,3-f]indazol-7-yl]spiro[3.3]heptane-2-carboxylic Acid] | > 3
COCCc1c(C2CCOCC2)n(-c2ccc(F)cc2)c2cc3cn[nH]c3cc12 [Compound 149] | 1.16 to 3
CC(=O)N1CCC(Cc2c(C3CCOCC3)n(-c3ccc(F)cc3)c3cc4cn[nH]c4cc23)C1 (stereo in doubt) [Compound 213, 1-[(3S)-3-[[5-(4-fluorophenyl)-6-tetrahydropyran-4-yl-1H-pyrrolo[2,3-f]indazol-7-yl]methyl]pyrrolidin-1-yl]ethanone] | > 3
O=C(O)c1ccc(C#Cc2c(C3CCOCC3)n(-c3ccc(F)cc3)c3cc4cn[nH]c4cc23)cc1 [Compound 215, 4-[2-[5-(4-fluorophenyl)-6-tetrahydropyran-4-yl-1H-pyrrolo[2,3-f]indazol-7-yl]ethynyl]benzoic Acid] | < 1.16
Cc1cc(-n2c(C3(C)COC3)c(S(C)(=O)=O)c3cc4[nH]ncc4cc32)ccc1F [Compound 139, 5-(4-fluoro-3-methyl-phenyl)-6-(3-methyloxetan-3-yl)-7-methylsulfonyl-1H-pyrrolo[2,3-f]indazole] | > 3
N#CCCc1c(C2CCOCC2)n(-c2ccc(F)cc2)c2cc3cn[nH]c3cc12 [Compound 146] | 1.16 to 3
CC(C)c1c(CC2(C(=O)O)CC2)c2cc3[nH]ncc3cc2n1-c1ccc(F)cc1 [Compound 33, 1-[[5-(4-fluorophenyl)-6-isopropyl-1H-pyrrolo[2,3-f]indazol-7-yl]methyl]cyclopropanecarboxylic Acid] | < 1.16
COCC(C)(C)c1c(CCC(=O)O)c2cc3[nH]ncc3cc2n1-c1ccc(F)cc1 [Compound 177] | 1.16 to 3
O=C(O)C1CC2(C1)CC(c1c(C3CCOCC3)n(-c3ccc(F)c(Cl)c3)c3cc4cn[nH]c4cc13)C2 (racemic) [Compound 76] | < 1.16
O=C(O)C1CC2(C1)CC(c1c(C3CCOCC3)n(-c3ccc(F)cc3)c3cc4cn[nH]c4c(F)c13)C2 (single isomer, unassigned) [Compound 137, 6-[8-fluoro-5-(4-fluorophenyl)-6-tetrahydropyran-4-yl-1H-pyrrolo[2,3-f]indazol-7-yl]spiro[3.3]heptane-2-carboxylic acid] | < 1.16
O=C(O)[C@H]1C[C@H](Cc2c(C3CCOCC3)n(-c3ccc(F)c(F)c3)c3cc4cn[nH]c4cc23)C1 (single isomer, unassigned) [Compound 71] | > 3
O=S1(=O)CCC(Cc2c(C3CCOCC3)n(-c3ccc(F)cc3)c3cc4cn[nH]c4cc23)CC1 [Compound 147] | 1.16 to 3
Cc1cc(-n2c(C3CCOCC3)c(CC3(C(=O)O)CC3)c3cc4[nH]ncc4cc32)ccc1F [Compound 87] | 1.16 to 3
Cc1cc(-n2c(C(C)C)cc3c(F)c4[nH]ncc4cc32)ccc1F [Compound 50, 8-fluoro-5-(4-fluoro-3-methyl-phenyl)-6-isopropyl-1H-pyrrolo[2,3-f]indazole] | > 3
Cc1cc(-n2c(C(C)C)c(C(C)CC(=O)O)c3cc4[nH]ncc4cc32)ccc1F (single isomer, unassigned) [Compound 28] | < 1.16
[2H]c1n[nH]c2c([2H])c3c(CC([2H])([2H])C(=O)O)c(C([2H])(C)C)n(-c4ccc(F)cc4)c3c([2H])c12 [Compound 189, 2,2-dideuterio-3-[3,4,8-trideuterio-6-(1-deuterio-1-methyl-ethyl)-5-(4-fluorophenyl)-1H-pyrrolo[2,3-f]indazol-7-yl]propanoic Acid] | 1.16 to 3
O=C(O)C1CC2(C1)CC(c1c(C3CCOCC3)n(-c3ccccc3)c3cc4cn[nH]c4cc13)C2 (stereo not drawn) [Compound 123, 6-(5-phenyl-6-tetrahydropyran-4-yl-1H-pyrrolo[2,3-f]indazol-7-yl)spiro[3.3]heptane-2-carboxylic Acid] | 1.16 to 3
O=C(O)C1CC2(C1)CC(c1c(C3CCOCC3)n(-c3ccc(F)c(F)c3)c3cc4cn[nH]c4cc13)C2 (single isomer, unassigned) [Compound 67] | < 1.16
O=C(O)CC1CC(c2c(C3CCOCC3)n(-c3ccc(F)c(Cl)c3)c3cc4cn[nH]c4cc23)C1 (mixture of isomers) [Compound 85] | 1.16 to 3

SMILES | EC50 [µM]
O=C(O)C1CC2(C1)CC(c1c(C3CCOC3)n(-c3ccc(F)cc3)c3cc4cn[nH]c4cc13)C2 (single isomer, unassigned) [Compound 141, 6-[5-(4-fluorophenyl)-6-tetrahydrofuran-3-yl-1H-pyrrolo[2,3-f]indazol-7-yl]spiro[3.3]heptane-2-carboxylic acid] | > 3
Cc1cc(-n2c(C(C)C)c(C(=O)O)c3cc4[nH]ncc4cc32)ccc1F [Compound 3, 5-(4-fluoro-3-methyl-phenyl)-6-isopropyl-1H-pyrrolo[2,3-f]indazole-7-carboxylic Acid] | 1.16 to 3
CC(=O)N1CCC(Cc2c(C3CCOCC3)n(-c3ccc(F)cc3)c3cc4cn[nH]c4cc23)CC1 [Compound 153, 1-[4-[[5-(4-fluorophenyl)-6-tetrahydropyran-4-yl-1H-pyrrolo[2,3-f]indazol-7-yl]methyl]-1-piperidyl]ethanone] | 1.16 to 3
COCC(C)(C)c1c(CCC(N)=O)c2cc3[nH]ncc3cc2n1-c1ccc(F)cc1 [Compound 183] | > 3
Cc1cc(-n2c(C(C)C)c(S(C)(=O)=O)c3cc4[nH]nnc4cc32)ccc1F [Compound 199, 5-(4-fluoro-3-methyl-phenyl)-6-isopropyl-7-methylsulfonyl-1H-pyrrolo[2,3-f]benzotriazole] | > 3
Cc1cc(-n2c(C(C)C)c(C3CC4(CC(C(=O)O)C4)C3)c3cc4[nH]ncc4cc32)ccc1F (single isomer, unassigned) [Compound 26] | < 1.16
Cc1cc(-n2c(C(C)C)c(CCC(=O)O)c3cc4[nH]nc(C)c4cc32)ccc1F [Compound 54, 3-[5-(4-fluoro-3-methyl-phenyl)-6-isopropyl-3-methyl-1H-pyrrolo[2,3-f]indazol-7-yl]propanoic Acid] | > 3
O=C(O)[C@H]1CC[C@H](Cc2c(C3CCOCC3)n(-c3ccc(F)cc3)c3cc4cn[nH]c4cc23)CC1 [Compound 119] | 1.16 to 3
O=C(O)[C@H]1C[C@H](c2c(C3CCOCC3)n(-c3ccc(F)cc3)c3cc4cn[nH]c4cc32)C1 [Compound 113] | 1.16 to 3
Cc1c2[nH]ncc2cc2c1c(C1CC3(CC(C(=O)O)C3)C1)c(C1CCOCC1)n2-c1ccc(F)c(F)c1 (stereo not drawn) [Compound 131, 6-[5-(3,4-difluorophenyl)-8-methyl-6-tetrahydropyran-4-yl-1H-pyrrolo[2,3-f]indazol-7-yl]spiro[3.3]heptane-2-carboxylic acid] | < 1.16
[H][C@]1(C(=O)O)C[C@]2(C1)C[C@@]([H])(c1c(C3CCOCC3)n(-c3ccc(F)c(C)c3)c3cc4cn[nH]c4cc31)C2 (single isomer, unassigned) [Compound 91] | < 1.16
N#CCCCc1c(C2CCOCC2)n(-c2ccc(F)cc2)c2cc3cn[nH]c3cc12 [Compound 148] | 1.16 to 3
O=C(O)C1(Cc2c(C3CCOCC3)n(-c3ccc(F)cc3)c3cc4cn[nH]c4cc23)CC1 [Compound 111] | 1.16 to 3
COCC(C)(C)c1c(CCCNC(=O)OCc2ccccc2)c2cc3[nH]ncc3cc2n1-c1ccc(F)cc1 [Compound 181] | > 3
O=C(O)CCc1c(C2CCOCC2)n(-c2ccc(F)c(F)c2)c2cc3cn[nH]c3cc12 [Compound 64, 3-[5-(3,4-difluorophenyl)-6-tetrahydropyran-4-yl-1H-pyrrolo[2,3-f]indazol-7-yl]propanoic Acid] | > 3
CC(C)c1c(C2CC3(CC(C(=O)O)C3)C2)c2cc3[nH]ncc3cc2n1-c1ccc(F)cc1 (single isomer, unassigned) [Compound 35, 6-[5-(4-fluorophenyl)-6-isopropyl-1H-pyrrolo[2,3-f]indazol-7-yl]spiro[3.3]heptane-2-carboxylic acid] | < 1.16
C[C@]1(C(=O)O)C[C@H](c2c(C3CCOCC3)n(-c3ccc(F)cc3)c3cc4cn[nH]c4cc32)C1 (single isomer, unassigned) [Compound 115] | 1.16 to 3
Fc1ccc(-n2c(C3CCOCC3)c(CCCn3cncn3)c3cc4[nH]ncc4cc32)cc1 [Compound 164] | > 3
CC(C)c1c(C2CC3(CC(C(=O)O)C3)C2)c2cc3[nH]ncc3cc2n1-c1ccc(F)cc1 (racemic) [Compound 34, 6-[5-(4-fluorophenyl)-6-isopropyl-1H-pyrrolo[2,3-f]indazol-7-yl]spiro[3.3]heptane-2-carboxylic acid] | < 1.16
O=C(O)C1CCC(Cc2c(C3CCOCC3)n(-c3ccc(F)c(Cl)c3)c3cc4cn[nH]c4cc23)CC1 (mixture of isomers) [Compound 83] | 1.16 to 3
C[C@@H](O)C(=O)N1CC2(CC(c3c(C4CCOCC4)n(-c4ccc(F)c(F)c4)c4cc5cn[nH]c5cc34)C2)C1 [Compound 185, (2R)-1-[6-[5-(3,4-difluorophenyl)-6-tetrahydropyran-4-yl-1H-pyrrolo[2,3-f]indazol-7-yl]-2-azaspiro[3.3]heptan-2-yl]-2-hydroxy-propan-1-one] | 1.16 to 3
